Experimental data: US20050009840A1 (SUGEN, INC., priority 2003, published 2005)

Molecular target: T1, Met kinase domain (GST fusion protein) (Homo sapiens, UniProt P08581)
T1 construct: Purified GST fusion protein containing the Met kinase domain
Assay: Met transphosphorylation assay (ELISA, poly(glu-tyr) substrate);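 further: Cell-free ELISA with plate-bound poly(Glu:Tyr 4:1) phosphorylated by GST-fused Met kinase domain plus ATP and Mn2+, phosphotyrosine detected by anti-phosphotyrosine antibody with HRP and ABTS read-out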
Format: biochemical
Conditions: Table 2; read-out: Met IC50

T1 sequence (P08581 1078-1345 limits assumed): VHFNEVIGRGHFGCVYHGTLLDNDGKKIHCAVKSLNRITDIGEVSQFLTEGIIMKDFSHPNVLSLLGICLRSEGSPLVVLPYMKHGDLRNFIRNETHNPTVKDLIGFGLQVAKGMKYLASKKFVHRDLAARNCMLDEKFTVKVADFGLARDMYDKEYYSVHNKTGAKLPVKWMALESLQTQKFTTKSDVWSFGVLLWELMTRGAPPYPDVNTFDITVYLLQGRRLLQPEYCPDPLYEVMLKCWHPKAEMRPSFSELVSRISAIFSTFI

IC50	SMILES
80 nM	CCN(CC)CCS(=O)(=O)Nc1ccc(-c2cnc(N)c(OC(C)c3c(Cl)ccc(F)c3Cl)c2)cc1 (stereo not drawn) [Example I-323, 2-Diethylamino-ethanesulfonic acid (4-{6-amino-5-[1-(2,6-dichloro-3-fluoro-phenyl)-ethoxy]-pyridin-3-yl}-phenyl)-amide]
89 nM	CC(Oc1cc(-c2ccc(NS(=O)(=O)CCN3CCCCC3)cc2)cnc1N)c1c(Cl)ccc(F)c1Cl (stereo not drawn) [Example I-325]
75 nM	CC(Oc1cc(-c2ccc(NS(=O)(=O)CCNCC3CC3)cc2)cnc1N)c1c(Cl)ccc(F)c1Cl (stereo not drawn) [Example I-326, 2-(Cyclopropylmethyl-amino)-ethanesulfonic acid (4-{6-amino-5-[1-(2,6-dichloro-3-fluoro-phenyl)-ethoxy]-pyridin-3-yl}-phenyl)-amide]
93 nM	CC(Oc1cc(-c2ccc(NS(=O)(=O)CCN3CC[C@@H](O)C3)cc2)cnc1N)c1c(F)ccc(F)c1Cl (stereo partly drawn) [Example I-327]
160 nM	CC(Oc1cc(-c2ccc(NS(=O)(=O)CCNC3CC3)cc2)cnc1N)c1c(F)ccc(F)c1Cl (stereo not drawn) [Example I-328, 2-Cyclopropylamino-ethanesulfonic acid (4-{6-amino-5-[1-(2-chloro-3,6-difluoro-phenyl)-ethoxy]-pyridin-3-yl}-phenyl)-amide]
95 nM	CCN(CC)CCS(=O)(=O)Nc1ccc(-c2cnc(N)c(OC(C)c3c(F)ccc(F)c3Cl)c2)cc1 (stereo not drawn) [Example I-329, 2-Diethylamino-ethanesulfonic acid (4-{6-amino-5-[1-(2-chloro-3,6-difluoro-phenyl)-ethoxy]-pyridin-3-yl}-phenyl)-amide]
130 nM	CC(Oc1cc(-c2ccc(C(=O)NCCN3CCOCC3)cc2)cnc1N)c1c(F)ccc(F)c1Cl (stereo not drawn) [Example I-331, 4-{6-Amino-5-[1-(2-chloro-3,6-difluoro-phenyl)-ethoxy]-pyridin-3-yl}-N-(2-morpholin-4-yl-ethyl)-benzamide]
79 nM	CC(Oc1cc(-c2ccc(C(=O)NC3CCN(C)CC3)cc2)cnc1N)c1c(F)ccc(F)c1Cl (stereo not drawn) [Example I-332, 4-{6-Amino-5-[1-(2-chloro-3,6-difluoro-phenyl)-ethoxy]-pyridin-3-yl}-N-(1-methyl-piperidin-4-yl)-benzamide]
89 nM	CC(Oc1cc(-c2ccc(C(=O)N3CC[C@@H](N)C3)cc2)cnc1N)c1c(F)ccc(F)c1Cl (stereo partly drawn) [Example I-334, (4-{6-Amino-5-[1-(2-chloro-3,6-difluoro-phenyl)-ethoxy]-pyridin-3-yl}-phenyl)-((R)-3-amino-pyrrolidin-1-yl)-methanone]
90 nM	CC(Oc1cc(-c2ccc(C(=O)N3C[C@@H](C)N[C@@H](C)C3)cc2)cnc1N)c1c(F)ccc(F)c1Cl (stereo partly drawn) [Example I-335, (4-{6 Amino-5-[1-(2-chloro-3,6-difluoro-phenyl)-ethoxy]-pyridin-3-yl}-phenyl)-((3R,5S)-3,5-dimethyl-piperazin-1-yl)-methanone]
90 nM	CC(Oc1cc(-c2ccc(C(=O)NCCCN3CCCC3)cc2)cnc1N)c1c(F)ccc(F)c1Cl (stereo not drawn) [Example I-336, 4-{6-Amino-5-[1-(2-chloro-3,6-difluoro-phenyl)-ethoxy]-pyridin-3-yl}-N-(3-pyrrolidin-1-yl-propyl)-benzamide]
77 nM	CC(Oc1cc(-c2ccc(C(=O)N3CCN(C)CC3)cc2)cnc1N)c1c(F)ccc(F)c1Cl (stereo not drawn) [Example I-338, (4-{6-Amino-5-[1-(2-chloro-3,6-difluoro-phenyl)-ethoxy]-pyridin-3-yl}-phenyl)-(4-methyl-piperazin-1-yl)-methanone]
86 nM	CC(Oc1cc(-c2ccc(C(=O)NCCN3CCCC3)cc2)cnc1N)c1c(F)ccc(F)c1Cl (stereo not drawn) [Example I-340, 4-{6-Amino-5-[1-(2-chloro-3,6-difluoro-phenyl)-ethoxy]-pyridin-3-yl}-N-(2-pyrrolidin-1-yl-ethyl)-benzamide]
75 nM	CC(Oc1cc(-c2ccc(C(=O)N3CC[C@H](N)C3)cc2)cnc1N)c1c(F)ccc(F)c1Cl (stereo partly drawn) [Example I-341, (4-{6-Amino-5-[1-(2-chloro-3,6-difluoro-phenyl)-ethoxy]-pyridin-3-yl}-phenyl)-((S)-3-amino-pyrrolidin-1-yl)-methanone]
160 nM	CC(Oc1cc(-c2cccc(C(=O)N3C[C@@H](C)N[C@@H](C)C3)c2)cnc1N)c1c(F)ccc(F)c1Cl (stereo partly drawn) [Example I-343]
120 nM	CC(Oc1cc(-c2cccc(C(=O)N3CC[C@@H](N)C3)c2)cnc1N)c1c(F)ccc(F)c1Cl (stereo partly drawn) [Example I-344, (3-{6-Amino-5-[1-(2-chloro-3,6-difluoro-phenyl)-ethoxy]-pyridin-3-yl}-phenyl)-((R)-3-amino-pyrrolidin-1-yl)-methanone]
200 nM	CC(Oc1cc(-c2cccc(C(=O)NC3CCN(C)CC3)c2)cnc1N)c1c(F)ccc(F)c1Cl (stereo not drawn) [Example I-345, 3-{6-Amino-5-[1-(2-chloro-3,6-difluoro-phenyl)-ethoxy]-pyridin-3-yl}-N-(1-methyl-piperidin-4-yl)-benzamide]
190 nM	CC(Oc1cc(-c2cccc(C(=O)N3CCN(C)CC3)c2)cnc1N)c1c(F)ccc(F)c1Cl (stereo not drawn) [Example I-346, (3-{6-Amino-5-[1-(2-chloro-3,6-difluoro-phenyl)-ethoxy]-pyridin-3-yl}-phenyl)-(4-methyl-piperazin-1-yl)-pnl methanone]

IC50	SMILES
210 nM	CC(Oc1cc(-c2cccc(C(=O)NCCCN3CCCC3)c2)cnc1N)c1c(F)ccc(F)c1Cl (stereo not drawn) [Example I-347, 3-{6-Amino-5-[1-(2-chloro-3,6-difluoro-phenyl)-ethoxy]-pyridin-3-yl}-N-(3-pyrrolidin-1-yl-propyl)-benzamide]
200 nM	CC(Oc1cc(-c2cccc(C(=O)NCCN3CCCC3)c2)cnc1N)c1c(F)ccc(F)c1Cl (stereo not drawn) [Example I-348, 3-{6-Amino-5-[1-(2-chloro-3,6-difluoro-phenyl)-ethoxy]-pyridin-3-yl}-N-(2-pyrrolidin-1-yl-ethyl)-benzamide]
130 nM	CC(Oc1cc(-c2cccc(C(=O)N3CC[C@H](N)C3)c2)cnc1N)c1c(F)ccc(F)c1Cl (stereo partly drawn) [Example I-349, (3-{6-Amino-5-[1-(2-chloro-3,6-difluoro-phenyl)-ethoxy]-pyridin-3-yl}-phenyl)-((S)-3-amino-pyrrolidin-1-yl)-methanone]
390 nM	CC(Oc1cc(-c2cccc(C(=O)NCCN3CCOCC3)c2)cnc1N)c1c(F)ccc(F)c1Cl (stereo not drawn) [Example I-350, 3-{6-Amino-5-[1-(2-chloro-3,6-difluoro-phenyl)-ethoxy]-pyridin-3-yl}-N-(2-morpholin-4-yl-ethyl)-benzamide]
230 nM	CC(Oc1cc(-c2cccc(C(=O)N3CCC[C@@H]3CN3CCCC3)c2)cnc1N)c1c(F)ccc(F)c1Cl (stereo partly drawn) [Example I-351]
150 nM	CC(Oc1cc(-c2cccc(C(=O)N3CCC[C@H]3CN3CCCC3)c2)cnc1N)c1c(F)ccc(F)c1Cl (stereo partly drawn) [Example I-352]
230 nM	CC(Oc1cc(-c2ccc(OCCN3CCOCC3)cc2)cnc1N)c1c(F)ccc(F)c1Cl (stereo not drawn) [Example I-353, 3-[1-(2-Chloro-3,6-difluoro-phenyl)-ethoxy]-5-[4-(2-morpholin-4-yl-ethoxy)-phenyl]-pyridin-2-ylamine]
220 nM	CC(Oc1cc(-c2cccc(OCCN3CCOCC3)c2)cnc1N)c1c(F)ccc(F)c1Cl (stereo not drawn) [Example I-354, 3-[1-(2-Chloro-3,6-difluoro-phenyl)-ethoxy]-5-[3-(2-morpholin-4-yl-ethoxy)-phenyl]-pyridin-2-ylamine]
68 nM	CC(Oc1cc(-c2ccc(OCCN3CCCC3)cc2)cnc1N)c1c(Cl)ccc(F)c1Cl (stereo not drawn) [Example I-355, 3-[1-(2,6-Dichloro-3-fluoro-phenyl)-ethoxy]-5-[4-(2-pyrrolidin-1-yl-ethoxy)-phenyl]-pyridin-2-ylamine]
79 nM	CC(Oc1cc(-c2ccc(OCCC3CCCN3C)cc2)cnc1N)c1c(Cl)ccc(F)c1Cl (stereo not drawn) [Example I-356]
130 nM	CC(Oc1cc(-c2ccc(OCCN3CCOCC3)cc2)cnc1N)c1c(Cl)ccc(F)c1Cl (stereo not drawn) [Example I-357, 3-[1-(2,6-Dichloro-3-fluoro-phenyl)-ethoxy]-5-[4-(2-morpholin-4-yl-ethoxy)-phenyl]-pyridin-2-ylamine]
220 nM	CC(Oc1cc(-c2cccc(OCCN3CCOCC3)c2)cnc1N)c1c(Cl)ccc(F)c1Cl (stereo not drawn) [Example I-358, 3-[1-(2,6-Dichloro-3-fluoro-phenyl)-ethoxy]-5-[3-(2-morpholin-4-yl-ethoxy)-phenyl]-pyridin-2-ylamine]
45 nM	CC(Oc1cc(-c2ccc(OCC(O)CN3CCOCC3)cc2)cnc1N)c1c(Cl)ccc(F)c1Cl (stereo not drawn) [Example I-359, 1-(4-{6-Amino-5-[1-(2,6-dichloro-3-fluoro-phenyl)-ethoxy]-pyridin-3-yl}-phenoxy)-3-morpholin-4-yl-propan-2-ol]
33 nM	CCN(CC)CCOc1ccc(-c2cnc(N)c(OC(C)c3c(Cl)ccc(F)c3Cl)c2)cc1 (stereo not drawn) [Example I-360, 3-[1-(2,6-Dichloro-3-fluoro-phenyl)-ethoxy]-5-[4-(2-diethylamino-ethoxy)-phenyl]-pyridin-2-ylamine]
43 nM	CC(Oc1cc(-c2ccc(OCC3CCCN(C)C3)cc2)cnc1N)c1c(Cl)ccc(F)c1Cl (stereo not drawn) [Example I-361, 3-[1-(2,6-Dichloro-3-fluoro-phenyl)-ethoxy]-5-[4-(1-methyl-piperidin-3-ylmethoxy)-phenyl]-pyridin-2-ylamine]
52 nM	CC(Oc1cc(-c2ccc(OCCN(C(C)C)C(C)C)cc2)cnc1N)c1c(Cl)ccc(F)c1Cl (stereo not drawn) [Example I-362]
52 nM	CC(Oc1cc(-c2ccc(OC3CCN(C)CC3)cc2)cnc1N)c1c(Cl)ccc(F)c1Cl (stereo not drawn) [Example I-363, 3-[1-(2,6-Dichloro-3-fluoro-phenyl)-ethoxy]-5-[4-(1-methyl-piperidin-4-yloxy)-phenyl]-pyridin-2-ylamine]
100 nM	CC(Oc1cc(-c2ccc(NS(C)(=O)=O)cc2)cnc1N)c1c(F)ccc(F)c1Cl (stereo not drawn) [Example I-364, N-(4-{6-Amino-5-[1-(2-chloro-3,6-difluoro-phenyl)-ethoxy]-pyridin-3-yl}-phenyl)-methanesulfonamide]
